# Experimental data from patent US8410106B2, “Hydrazine-substituted anthranilic acid derivatives” (Bayer Cropscience AG, priority 2010, dated 2013).
# Where two headings read alike, the source gives them in different places.
# Columns and labels:
# [1] = logP determination by HPLC on reversed-phase columns (C 18), EEC Directive 79/831 Annex V.A8; assay type: physicochemical
# [2] = system: green peach aphid (Myzus persicae); experiment: Myzus test (MYZUPE spray treatment); assay type: in vivo; conditions: foliar, 144 h, read-out: activity (aphids killed)
# Method: After 6 days the activity is determined, in %.
# [3] = system: caterpillars of the army worm (Spodoptera frugiperda); experiment: Spodoptera frugiperda test (SPODFR spray treatment); assay type: in vivo; conditions: foliar, 168 h, read-out: activity (caterpillars killed)
# [4] = system: larvae of the mustard beetle (Phaedon cochleariae); experiment: Phaedon test (PHAECO spray treatment); conditions: in Brassica rapa, foliar, 168 h, read-out: activity (beetle larvae killed)
# [5] = HPLC, reversed-phase C 18, table value without method mark, read-out: logP
# [6] = application rate 100 g/ha, after 6 days, Chinese cabbage leaf discs, spray
# [7] = application rate 100 g/ha, after 7 days, maize leaf discs, spray
SMILES,chromatographic logP [1],pest or weed control at 100 g/ha ([2]; in Brassica rapa) [%],pest or weed control at 100 g/ha ([3]; in Zea mays) [%],pest or weed control at 100 g/ha [4] [%],"chromatographic logP [1, 5]","pest or weed control at 100 g/ha [2, 6] [%]","pest or weed control at 100 g/ha [3, 7] [%]"
COC(=O)N(C)NC(=O)c1cc(Cl)cc(C)c1NC(=O)c1cc(Cn2cc(-c3ccc(Cl)cc3)nn2)nn1-c1ncccc1Cl [Example 23],3.14,100,100,100,–,–,–
COC(=O)N(C)NC(=O)c1cc(I)cc(C)c1NC(=O)c1cc(Cn2cnc(C(F)(F)F)c2C(F)(F)F)nn1-c1ncccc1Cl [Example 49],–,–,–,100,3.26,100,100
COC(=O)N(C)NC(=O)c1cc(C#N)cc(C)c1NC(=O)c1cc(Cn2nnc(C(F)(C(F)(F)F)C(F)(F)F)n2)nn1-c1ncccc1Cl [Example 16],–,–,–,100,3.26,100,100
COC(=O)N(C)NC(=O)c1cc(Br)cc(C)c1NC(=O)c1cc(Cn2nnc(C(F)F)n2)nn1-c1ncccc1Cl [Example 27],2.58,100,100,100,–,–,–
COC(=O)N(C)NC(=O)c1cc(C#N)cc(C)c1NC(=O)c1cc(Cn2cc(C(F)(F)F)nn2)nn1-c1ncccc1Cl [Example 47],2.3,90,100,100,–,–,–
COC(=O)N(C)NC(=O)c1cc(F)cc(C)c1NC(=O)c1cc(Cn2nnc(C(F)F)n2)nn1-c1ncccc1Cl [Example 75],2.19,100,100,100,–,–,–
COC(=O)N(C)NC(=O)c1cc(C(F)(F)F)cc(C)c1NC(=O)c1cc(Cn2nnc(C(F)(F)F)n2)nn1-c1ncccc1Cl [Example 60],3.17,100,100,100,–,–,–
COC(=O)N(C)NC(=O)c1cc(C#N)cc(C)c1NC(=O)c1cc(Cn2nc(C(F)F)cc2C(F)F)nn1-c1ncccc1Cl [Example 63],2.59,100,100,100,–,–,–
COC(=O)N(C)NC(=O)c1cc(I)cc(C)c1NC(=O)c1cc(Cn2nnc(C(F)F)n2)nn1-c1ncccc1Cl [Example 74],2.64,100,100,100,–,–,–
COC(=O)N(C)NC(=O)c1cc(Cl)cc(C)c1NC(=O)c1cc(Cn2cc(C3CC3)nn2)nn1-c1ncccc1Cl [Example 37],2.18,100,100,100,–,–,–
COC(=O)N(C)NC(=O)c1cc(Cl)cc(Cl)c1NC(=O)c1cc(Cn2nc(C(F)(F)F)cc2C)nn1-c1ncccc1Cl [Example 66],3.1,100,100,100,–,–,–
COC(=O)N(C)NC(=O)c1cc(Cl)cc(Cl)c1NC(=O)c1cc(Cn2nnnc2C(F)F)nn1-c1ncccc1Cl [Example 28],2.27,100,100,100,–,–,–
COC(=O)N(C)NC(=O)c1cc(I)cc(C)c1NC(=O)c1cc(Cn2nnc(C(F)(F)C(F)(F)C(F)(F)F)n2)nn1-c1ncccc1Cl [Example 81],–,80,100,100,3.85,–,–
COC(=O)N(C)N(C)C(=O)c1cc(C#N)cc(C)c1NC(=O)c1cc(Cn2nnc(C(F)(F)C(F)(F)C(F)(F)F)n2)nn1-c1ncccc1Cl [Example 82],–,100,100,100,3.67,–,–
COC(=O)N(C)NC(=O)c1cc(Cl)cc(Cl)c1NC(=O)c1cc(Cn2nc(C(F)(F)F)c(Cl)c2C)nn1-c1ncccc1Cl [Example 11],3.55,90,100,100,–,–,–
COC(=O)NNC(=O)c1cc(Cl)cc(C)c1NC(=O)c1cc(Cn2nnc(C(F)(F)F)n2)nn1-c1ncccc1Cl [Example 3],2.73,100,100,100,–,–,–
COC(=O)N(C)N(C)C(=O)c1cc(Cl)cc(C)c1NC(=O)c1cc(Cn2nnc(C(F)(F)F)n2)nn1-c1ncccc1Cl [Example 7],3.39,100,100,100,–,–,–

SMILES,chromatographic logP [1],pest or weed control at 100 g/ha ([2]; in Brassica rapa) [%],pest or weed control at 100 g/ha ([3]; in Zea mays) [%],pest or weed control at 100 g/ha [4] [%],"chromatographic logP [1, 5]","pest or weed control at 100 g/ha [2, 6] [%]","pest or weed control at 100 g/ha [3, 7] [%]"
COC(=O)N(C)N(C)C(=O)c1cc(C#N)cc(C)c1NC(=O)c1cc(Cn2nnc(C(F)(C(F)(F)F)C(F)(F)F)n2)nn1-c1ncccc1Cl [Example 79],–,–,–,100,3.66,100,100
COC(=O)N(C)NC(=O)c1cc(Cl)cc(Cl)c1NC(=O)c1cc(Cn2cnc(C(F)(F)F)c2C(F)(F)F)nn1-c1ncccc1Cl [Example 36],–,–,–,100,3.1,100,100
COC(=O)NNC(=O)c1cc(C#N)cc(C)c1NC(=O)c1cc(Cn2nnc(C(F)(F)F)n2)nn1-c1ncccc1Cl [Example 4],2.41,100,100,100,–,–,–
COC(=O)N(C)NC(=O)c1cc(Cl)cc(Cl)c1NC(=O)c1cc(Cn2cc(C(F)(F)F)nn2)nn1-c1ncccc1Cl [Example 34],2.61,100,100,100,–,–,–
COC(=O)N(C)NC(=O)c1cc(Cl)cc(Cl)c1NC(=O)c1cc(Cn2nc(C(F)F)cc2C(F)F)nn1-c1ncccc1Cl [Example 42],2.9,100,100,100,–,–,–
COC(=O)N(C)NC(=O)c1cc(Br)cc(C)c1NC(=O)c1cc(Cn2nnc(C(F)(F)C(F)(F)F)n2)nn1-c1ncccc1Cl [Example 53],3.4,100,100,100,–,–,–
COC(=O)N(C)NC(=O)c1cc(Cl)cc(C)c1NC(=O)c1cc(Cn2nc(C(F)(F)C(F)(F)C(F)(F)F)cc2C)nn1-c1ncccc1Cl [Example 68],–,100,100,100,3.82,–,–
COC(=O)N(C)NC(=O)c1cc(Cl)cc(C)c1NC(=O)c1cc(Cn2nc(C(F)F)cc2C(F)F)nn1-c1ncccc1Cl [Example 50],2.91,100,100,100,–,–,–
COC(=O)N(C)NC(=O)c1cc(I)cc(C)c1NC(=O)c1cc(Cn2nnc(C(F)(F)F)n2)nn1-c1ncccc1Cl [Example 51],3.15,100,100,100,–,–,–
COC(=O)N(C)NC(=O)c1cc(Cl)cc(C)c1NC(=O)c1cc(Cn2cc([N+](=O)[O-])c(C(F)(F)F)n2)nn1-c1ncccc1Cl [Example 20],3.07,90,100,100,–,–,–
COC(=O)N(C)NC(=O)c1cc(Cl)cc(C)c1NC(=O)c1cc(Cn2nnnc2C(F)F)nn1-c1ncccc1Cl [Example 46],2.25,100,100,100,–,–,–
COC(=O)N(C)NC(=O)c1cc(Cl)cc(C)c1NC(=O)c1cc(Cn2cc(C(F)(F)F)nn2)nn1-c1ncccc1Cl [Example 33],2.61,100,100,100,–,–,–
COC(=O)N(C)NC(=O)c1cc(Cl)cc(Cl)c1NC(=O)c1cc(Cn2nc(C(F)(F)F)c(Br)c2C)nn1-c1ncccc1Cl [Example 12],3.57,100,100,100,–,–,–
COC(=O)N(C)NC(=O)c1cc(C#N)cc(C)c1NC(=O)c1cc(Cn2ncc(C(F)(F)F)n2)nn1-c1ncccc1Cl [Example 29],2.62,100,100,100,–,–,–
COC(=O)NNC(=O)c1cc(Cl)cc(C)c1NC(=O)c1cc(Cn2cc(C3CC3)nn2)nn1-c1ncccc1Cl [Example 38],2.02,100,100,100,–,–,–
COC(=O)N(C)NC(=O)c1cc(Cl)cc(C)c1NC(=O)c1cc(Cn2nnc(C(F)(F)F)n2)nn1-c1ncccc1Cl [Example 5],2.96,100,100,100,–,–,–
COC(=O)N(C)NC(=O)c1cc(Cl)cc(Cl)c1NC(=O)c1cc(Cn2nnc(C(F)(F)C(F)(F)F)n2)nn1-c1ncccc1Cl [Example 25],3.32,100,100,100,–,–,–
